Assay results published in ChEMBL document CHEMBL1122199, “Structure-activity relationships in potentially hallucinogenic N,N-dialkyltryptamines substituted in the benzene moiety” (J Med Chem, 1982).
Where “and” joins values, the source holds several entries; their conditions need not be identical. Equal entries are not always repeated.

Tests used:
Rattus norvegicus [1] = test: The behavior disruption data as percent change in response from drug versus saline at dose 1 mg/kg, expressed as B/P (burst/premature).; assay type: functional
Rattus norvegicus [2] = test: The behavior disruption data as percent change in response from drug versus saline at dose 1mg/Kg, expressed as E (efficient); assay type: functional
Rattus norvegicus [3] = test: The behavior disruption data as percent change in response from drug versus saline at dose 2mg/kg, expressed as B/P (burst/premature).; assay type: functional
Rattus norvegicus [4] = test: The behavior disruption data as percent change in response from drug versus saline at dose 2mg/Kg, expressed as E (efficient); assay type: functional
Rattus norvegicus [5] = test: The behavior disruption data as percent change in response from drug versus saline at dose 1mg/Kg, expressed as L (Late).; assay type: functional
Rattus norvegicus [6] = test: The behavior disruption data as percent change in response from drug versus saline at dose 2mg/Kg, expressed as L (Late).; assay type: functional
Rattus norvegicus [7] = test: The behavior disruption data as percent change in response from drug versus saline at dose 2.5mg/Kg, expressed as E (efficient); assay type: functional
[8] = Hill coefficient of the compound
Rattus norvegicus [9] = test: The behavior disruption data as percent change in response from drug versus saline at dose 1.25 mg/kg, expressed as B/P (burst/premature).; assay type: functional
Rattus norvegicus [10] = test: The behavior disruption data as percent change in response from drug versus saline at dose 1.25mg/Kg, expressed as E (efficient); assay type: functional
Rattus norvegicus [11] = test: The behavior disruption data as percent change in response from drug versus saline at dose 2.5mg/Kg, expressed as L (Late).; assay type: functional
[12] = Ability to displace [3H]LSD binding to Lysergic acid diethylamide receptor site using 1 uM 5-HT as masking ligand; design: species or system Cavia porcellus
Rattus norvegicus [13] = test: The behavior disruption data as percent change in response from drug versus saline at dose 1.25mg/Kg, expressed as L (Late).; assay type: functional
[14] = target: Serotonin (5-HT) receptor; test: Ability to displace [3H]5-HT binding to 5-hydroxytryptamine receptor site using 1 uM LSD as masking ligand; assay type: protein assay, Cavia porcellus
Rattus norvegicus [15] = test: The behavior disruption data as percent change in response from drug versus saline at dose 2.5 mg/kg, expressed as B/P (burst/premature).; assay type: functional
Rattus norvegicus [16] = test: The behavior disruption data as percent change in response from drug versus saline at dose 10mg/Kg, expressed as L (Late).; assay type: functional
Rattus norvegicus [17] = test: The behavior disruption data as percent change in response from drug versus saline at dose 10mg/Kg, expressed as E (efficient); assay type: functional
Rattus norvegicus [18] = test: The behavior disruption data as percent change in response from drug versus saline at dose 5mg/Kg, expressed as L (Late).; assay type: functional
Rattus norvegicus [19] = test: The behavior disruption data as percent change in response from drug versus saline at dose 10 mg/kg, expressed as B/P (burst/premature).; assay type: functional
Rattus norvegicus [20] = test: The behavior disruption data as percent change in response from drug versus saline at dose 5 mg/kg, expressed as B/P (burst/premature).; assay type: functional
Rattus norvegicus [21] = test: The behavior disruption data as percent change in response from drug versus saline at dose 5mg/Kg, expressed as E (efficient); assay type: functional
Rattus norvegicus [22] = test: The behavior disruption data as percent change in response from drug versus saline at dose 4mg/Kg, expressed as E (efficient); assay type: functional
Rattus norvegicus [23] = test: The behavior disruption data as percent change in response from drug versus saline at dose 4 mg/kg, expressed as B/P (burst/premature).; assay type: functional
Rattus norvegicus [24] = test: The behavior disruption data as percent change in response from drug versus saline at dose 8mg/Kg, expressed as E (efficient); assay type: functional
Rattus norvegicus [25] = test: The behavior disruption data as percent change in response from drug versus saline at dose 8mg/Kg, expressed as L (Late).; assay type: functional
Rattus norvegicus [26] = test: The behavior disruption data as percent change in response from drug versus saline at dose 4mg/Kg, expressed as L (Late).; assay type: functional
Rattus norvegicus [27] = test: The behavior disruption data was measured as percent change in response from drug versus saline at dose 2 mg/kg, activity expressed as L (Late).; assay type: functional
Rattus norvegicus [28] = test: The behavior disruption data as percent change in response from drug versus saline at dose 8 mg/kg, expressed as B/P (burst/premature).; assay type: functional
Rattus norvegicus [29] = test: The behavior disruption data as percent change in response from drug versus saline at dose 0.5 mg/Kg, expressed as E (efficient); assay type: functional
Rattus norvegicus [30] = test: The behavior disruption data as percent change in response from drug versus saline at dose 0.25mg/Kg, expressed as E (efficient); assay type: functional
Rattus norvegicus [31] = test: The behavior disruption data as percent change in response from drug versus saline at dose 0.5 mg/Kg, expressed as L (Late).; assay type: functional
Rattus norvegicus [32] = test: The behavior disruption data as percent change in response from drug versus saline at dose 0.5 mg/kg, expressed as B/P (burst/premature).; assay type: functional
Rattus norvegicus [33] = test: The behavior disruption data as percent change in response from drug versus saline at dose 0.25 mg/kg, expressed as B/P (burst/premature).; assay type: functional
Rattus norvegicus [34] = test: The behavior disruption data as percent change in response from drug versus saline at dose 0.25mg/Kg, expressed as L (Late).; assay type: functional
[35] = target: Serotonin (5-HT) receptor; test: Ability to displace [3H]5-HT binding from 5-hydroxytryptamine receptor site using 1 uM LSD as masking ligand; assay type: protein assay, Cavia porcellus
Rattus norvegicus [36] = test: The behavior disruption data as percent change in response from drug versus saline at dose 15 mg/kg, expressed as B/P (burst/premature).; assay type: functional
Rattus norvegicus [37] = test: The behavior disruption data as percent change in response from drug versus saline at dose 15mg/Kg, expressed as L (Late).; assay type: functional
Rattus norvegicus [38] = test: The behavior disruption data as percent change in response from drug versus saline at dose 15mg/Kg, expressed as E (efficient); assay type: functional

Row | SMILES | Change in response (Rattus norvegicus [1]) | Change in response (Rattus norvegicus [2]) | Change in response (Rattus norvegicus [3]) | Change in response (Rattus norvegicus [4]) | Change in response (Rattus norvegicus [5]) | Change in response (Rattus norvegicus [6]) | Hill coefficient [8] | IC50 [12] | IC50 [14] | Change in response (Rattus norvegicus [18]) | Change in response (Rattus norvegicus [20]) | Change in response (Rattus norvegicus [21]) | Change in response (Rattus norvegicus [29]) | Change in response (Rattus norvegicus [31]) | Change in response (Rattus norvegicus [32]) | also measured
1 | COc1ccc2[nH]cc(CCN(C)C)c2c1 [MEBUFOTENIN] | 6% | 11% | 19% | 26% | 5% | 9% |  |  |  |  |  |  |  |  |  | 
2 | CC(C)N(CCc1c[nH]c2ccc3c(c12)OCO3)C(C)C |  |  |  |  |  |  | 0.343 | 2.88e-6 M l-1 | 2.24e-6 M l-1 |  |  |  |  |  |  | Change in response (Rattus norvegicus [7]): 49%; Change in response (Rattus norvegicus [9]): 24%; Change in response (Rattus norvegicus [10]): 28%; Change in response (Rattus norvegicus [11]): 11%; Change in response (Rattus norvegicus [13]): 74%; Change in response (Rattus norvegicus [15]): 38%
3 | CSc1cccc2[nH]cc(CCN(C(C)C)C(C)C)c12 |  |  |  |  |  |  | 0.7 |  |  | 4% | 1% | 5% |  |  |  | Change in response (Rattus norvegicus [16]): 9%; Change in response (Rattus norvegicus [17]): 32%; Change in response (Rattus norvegicus [19]): 23%
4 | CSc1cccc2[nH]cc(CCN(C)C)c12 | 0% | 1% | 8% | 11% | 1% |  | 0.75 and 1.01 | 0.0000125 M l-1 | 0.000151 M l-1 |  |  |  |  |  |  | Change in response (Rattus norvegicus [22]): 27%; Change in response (Rattus norvegicus [23]): 20%; Change in response (Rattus norvegicus [24]): 52%; Change in response (Rattus norvegicus [25]): 15%; Change in response (Rattus norvegicus [26]): 6%; Change in response (Rattus norvegicus [27]): 3%; Change in response (Rattus norvegicus [28]): 36%
5 | CN(C)CCc1c[nH]c2ccc3c(c12)OCO3 | 5% | 10% | 11% | 31% | 5% | 20% |  |  |  |  |  |  | 5% | 5% | 0% | Change in response (Rattus norvegicus [30]): 3%; Change in response (Rattus norvegicus [33]): 3%; Change in response (Rattus norvegicus [34]): 5%
6 | CSc1ccc2[nH]cc(CCN(C)C)c2c1 | 16% | 65% |  |  | 49% |  | 0.91 and 0.995 | 1.44e-7 M l-1 |  |  |  |  | 26% | 7% | 13% | IC50 [35]: 1e-6 M l-1
7 | CSc1ccc2c(CCN(C)C)c[nH]c2c1 | 8% | 13% | 20% | 30% | 4% | 19% | 0.97 and 0.57 | 7.59e-6 M l-1 | 0.0000408 M l-1 |  |  |  | 8% | 4% | 4% | Change in response (Rattus norvegicus [22]): 48%; Change in response (Rattus norvegicus [23]): 34%; Change in response (Rattus norvegicus [26]): 14%
8 | COc1ccc2c(CCN(C)C)c[nH]c2c1 |  |  |  |  |  |  |  |  |  | 21% | 29% | 50% |  |  |  | Change in response (Rattus norvegicus [7]): 34%; Change in response (Rattus norvegicus [9]): 25%; Change in response (Rattus norvegicus [10]): 21%; Change in response (Rattus norvegicus [11]): 8%; Change in response (Rattus norvegicus [13]): 5%; Change in response (Rattus norvegicus [15]): 26%
9 | CC(C)N(CCc1c[nH]c2cc3c(cc12)OCO3)C(C)C |  |  |  |  |  |  | 0.642 | 0.00001 M l-1 |  | 2% | 2% | 4% |  |  |  | Change in response (Rattus norvegicus [7]): 2%; Change in response (Rattus norvegicus [16]): 16%; Change in response (Rattus norvegicus [17]): 45%; Change in response (Rattus norvegicus [9]): 1%; Change in response (Rattus norvegicus [10]): 0%; Change in response (Rattus norvegicus [11]): 2%; IC50 [35]: 0.000933 M l-1; Change in response (Rattus norvegicus [19]): 29%; Change in response (Rattus norvegicus [13]): 1%; Change in response (Rattus norvegicus [15]): 0%
10 | CN(C)CCc1c[nH]c2cc3c(cc12)OCO3 |  |  |  |  |  |  | 0.95 and 1.01 | 1.78e-6 M l-1 | 0.0000407 M l-1 | 2% | 9% | 11% |  |  |  | Change in response (Rattus norvegicus [16]): 9%; Change in response (Rattus norvegicus [17]): 26%; Change in response (Rattus norvegicus [36]): 22%; Change in response (Rattus norvegicus [37]): 19%; Change in response (Rattus norvegicus [19]): 19%; Change in response (Rattus norvegicus [38]): 41%
11 | COc1cccc2[nH]cc(CCN(C)C)c12 | 9% | 25% | 10% | 27% | 6% | 7% |  |  |  |  |  |  | 2% | 2% | 0% | 
